Data as given in the supplement of paper PMC11451515.

Tested on: P12-Ichikawa
Test: cell viability relative to DMSO control; higher = less cytotoxic
Settings: 48 h
Summary of the method: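 Viability is expressed as a percentage of DMSO wells within each plate, and cell-free wells serve as background. Seeding densities in the 1536-well plates (5 μl) were 500 cells/well for NOMO1 or SEM leukemia cells and 1000 cells/well for P12-Ichikawa. Each line was adapted for at least four passages in each medium. Library compounds in DMSO were pin-dosed at 47 μM to 0.79 nM (11 points, threefold), and CellTiter-Glo One luminescence was read after 48 h at 37°C.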

[1] = HPLM + 10% dialyzed FBS, 0.000781 µM
[2] = HPLM + 10% dialyzed FBS, 0.00234 µM
[3] = HPLM + 10% dialyzed FBS, 0.00702 µM
[4] = HPLM + 10% dialyzed FBS, 0.0211 µM
[5] = HPLM + 10% dialyzed FBS, 0.0632 µM
[6] = HPLM + 10% dialyzed FBS, 0.19 µM
[7] = HPLM + 10% dialyzed FBS, 0.569 µM
[8] = HPLM + 10% dialyzed FBS, 1.71 µM
[9] = HPLM + 10% dialyzed FBS, 5.12 µM
[10] = HPLM + 10% dialyzed FBS, 15.4 µM
[11] = HPLM + 10% dialyzed FBS, 46.1 µM
[12] = RPMI 5 mM glucose + 10% FBS, 0.000781 µM
[13] = RPMI 5 mM glucose + 10% FBS, 0.00234 µM
[14] = RPMI 5 mM glucose + 10% FBS, 0.00702 µM
[15] = RPMI 5 mM glucose + 10% FBS, 0.0211 µM
[16] = RPMI 5 mM glucose + 10% FBS, 0.0632 µM
[17] = RPMI 5 mM glucose + 10% FBS, 0.19 µM
[18] = RPMI 5 mM glucose + 10% FBS, 0.569 µM
[19] = RPMI 5 mM glucose + 10% FBS, 1.71 µM
[20] = RPMI 5 mM glucose + 10% FBS, 5.12 µM
[21] = RPMI 5 mM glucose + 10% FBS, 15.4 µM
[22] = RPMI 5 mM glucose + 10% FBS, 46.1 µM
[23] = RPMI 5 mM glucose + 10% dialyzed FBS, 0.000781 µM
[24] = RPMI 5 mM glucose + 10% dialyzed FBS, 0.00234 µM
[25] = RPMI 5 mM glucose + 10% dialyzed FBS, 0.00702 µM
[26] = RPMI 5 mM glucose + 10% dialyzed FBS, 0.0211 µM
[27] = RPMI 5 mM glucose + 10% dialyzed FBS, 0.0632 µM
[28] = RPMI 5 mM glucose + 10% dialyzed FBS, 0.19 µM
[29] = RPMI 5 mM glucose + 10% dialyzed FBS, 0.569 µM
[30] = RPMI 5 mM glucose + 10% dialyzed FBS, 1.71 µM
[31] = RPMI 5 mM glucose + 10% dialyzed FBS, 5.12 µM
[32] = RPMI 5 mM glucose + 10% dialyzed FBS, 15.4 µM
[33] = RPMI 5 mM glucose + 10% dialyzed FBS, 46.1 µM

Compound | cell viability [1] | cell viability [2] | cell viability [3] | cell viability [4] | cell viability [5] | cell viability [6] | cell viability [7] | cell viability [8] | cell viability [9] | cell viability [10] | cell viability [11] | cell viability [12] | cell viability [13] | cell viability [14] | cell viability [15] | cell viability [16] | cell viability [17] | cell viability [18] | cell viability [19] | cell viability [20] | cell viability [21] | cell viability [22] | cell viability [23] | cell viability [24] | cell viability [25] | cell viability [26] | cell viability [27] | cell viability [28] | cell viability [29] | cell viability [30] | cell viability [31] | cell viability [32] | cell viability [33]
CC=CC1=C(C(=O)O)N2C(=O)[C@@H](NC(=O)[C@H](N)c3ccc(O)cc3)[C@H]2SC1.O | 97.8% | 110% | 121% | 105% | 126% | 90% | 116% | 111% | 113% | 13.8% | 15% | 88.6% | 103% | 111% | 109% | 120% | 115% | 104% | 112% | 107% | 17.7% | 13.7% | 100% | 108% | 107% | 113% | 118% | 109% | 110% | 116% | 114% | 45.3% | 18.8%
CC/C(=C(\c1ccccc1)c1ccc(OCCN(C)C)cc1)c1ccccc1 | 102% | 106% | 102% | 104% | 95.8% | 109% | 104% | 109% | 113% | 104% | 86.3% | 99.9% | 102% | 96.2% | 118% | 89.7% | 102% | 104% | 99.4% | 108% | 100% | 83.9% | 113% | 108% | 113% | 114% | 95.3% | 112% | 117% | 117% | 104% | 102% | 76.9%
CC(C)C1=N[N](C\2=C1C(=O)N\C(=N2)CC3=CC=C(OCCO)C=C3)C4=C(Cl)C=CC=C4Cl | 116% | 116% | 109% | 108% | 107% | 44% | 10.7% | 5.9% | 6.83% | 6.62% | 5.21% |  |  |  |  |  |  |  |  |  |  |  | 118% | 129% | 117% | 124% | 127% | 31.8% | 10.9% | 5.95% | 6.23% | 6.55% | 3.77%
CCC[S+](=O)([O-])Nc1ccc(F)c(C(=O)c2c[nH]c3ncc(-c4ccc(Cl)cc4)cc23)c1F | 116% | 110% | 107% | 115% | 114% | 107% | 108% | 105% | 99.9% | 98.5% | 93.5% | 116% | 109% | 117% | 110% | 118% | 110% | 99.1% | 110% | 108% | 96.4% | 98.2% | 124% | 120% | 122% | 120% | 125% | 120% | 113% | 107% | 108% | 103% | 95.2%
